Several values for one entry are separate records, joined by “and”; a condition that tells them apart may be missing. Equal entries are not always repeated. Inconclusive results and toxic doses are left out. The calls were made as follows: active = survival T/C of 150% or more; inactive = T/C below 125% in these data.
System: CD2F1 mice, L1210 leukemia ip, survival T/C
Assay: NCI In Vivo Anticancer Drug Screen. Data for tumor model L1210 Leukemia (intraperitoneal) in CD2F1 (CDF1) mice
Details: higher = longer survival
Method in brief: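 Mice carrying a transplanted tumor received test compound or vehicle alone. The value is the measurement in the treated group divided by that in the vehicle-treated control group.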

[1] = endpoint: mean survival time, dose: 50.0 mg/kg/injection, schedule: Q01DX009 (ip), vehicle: saline with Tween-80
[2] = endpoint: mean survival time, dose: 100.0 mg/kg/injection, schedule: Q01DX009 (ip), vehicle: saline with Tween-80
[3] = endpoint: mean survival time, dose: 100.0 mg/kg/injection, schedule: Q04DX003 (ip), vehicle: saline with Tween-80
[4] = endpoint: mean survival time, dose: 200.0 mg/kg/injection, schedule: Q01DX009 (ip), vehicle: saline with Tween-80
[5] = endpoint: mean survival time, dose: 200.0 mg/kg/injection, schedule: Q04DX003 (ip), vehicle: saline with Tween-80
[6] = endpoint: mean survival time, dose: 400.0 mg/kg/injection, schedule: Q04DX003 (ip), vehicle: saline with Tween-80
[7] = endpoint: mean survival time, dose: 100.0 mg/kg/injection, schedule: Q01DX001 (ip), vehicle: saline with Tween-80
[8] = endpoint: mean survival time, dose: 400.0 mg/kg/injection, schedule: Q01DX001 (ip), vehicle: saline with Tween-80
[9] = endpoint: mean survival time, dose: 400.0 mg/kg/injection, schedule: Q01DX009 (ip), vehicle: saline with Tween-80
[10] = endpoint: mean survival time, dose: 25.0 mg/kg/injection, schedule: Q04DX003 (ip), vehicle: saline with Tween-80
[11] = endpoint: mean survival time, dose: 50.0 mg/kg/injection, schedule: Q04DX003 (ip), vehicle: saline with Tween-80
[12] = endpoint: mean survival time, dose: 200.0 mg/kg/injection, schedule: Q01DX001 (ip), vehicle: saline with Tween-80

Measured: T/C

O=C(OCC1OC(n2cnc3c(=O)[nH][nH]c(=O)c32)C(OC(=O)c2ccccc2)C1OC(=O)c1ccccc1)c1ccccc1 (stereo not given)
inactive: endpoint: median survival time, dose: 8.25 mg/kg/injection, schedule: Q01DX005 (ip), vehicle: Klucel (hydroxypropylcellulose) (HPC) 104 % of control | endpoint: median survival time, dose: 16.5 mg/kg/injection, schedule: Q01DX005 (ip), vehicle: Klucel (hydroxypropylcellulose) (HPC) 98 % of control | endpoint: median survival time, dose: 33.0 mg/kg/injection, schedule: Q01DX005 (ip), vehicle: Klucel (hydroxypropylcellulose) (HPC) 97 % of control | endpoint: median survival time, dose: 66.0 mg/kg/injection, schedule: Q01DX005 (ip), vehicle: Klucel (hydroxypropylcellulose) (HPC) 101 % of control | endpoint: median survival time, dose: 132.0 mg/kg/injection, schedule: Q01DX005 (ip), vehicle: Klucel (hydroxypropylcellulose) (HPC) 102 % of control

Cn1c(-c2ccccc2)cc(=O)cc1-c1ccccc1
inactive: [1] 96 % of control | [2] 93 % of control | [3] 91 % of control | [4] 94 % of control | [5] 97 % of control

Cc1ccc(S(=O)(=O)N2CCC(C(=O)O)(c3ccccc3)CC2)cc1
inactive: [3] 113 % of control | [5] 98 % of control | [6] 95 % of control

O=C(O)c1ccc(CC23CC4CC(CC(C4)C2)C3)cc1
inactive: [7] 91 % of control | [2] 96 % of control | [4] 91 % of control | [8] 91 % of control | [9] 86 % of control

CC(C)CCCC(C)C1CCC2C3CCC4CC(=O)C=CC4(C)C3CCC12C (stereo not given)
inactive: endpoint: mean survival time, dose: 75.0 mg/kg/injection, schedule: Q04DX003 (sc), vehicle: steriod suspending solution 100 % of control | endpoint: mean survival time, dose: 150.0 mg/kg/injection, schedule: Q04DX003 (sc), vehicle: steriod suspending solution 101 % of control | endpoint: mean survival time, dose: 300.0 mg/kg/injection, schedule: Q04DX003 (sc), vehicle: steriod suspending solution 101 % of control

C=C1C(=O)OC2C1CCC(C)C1(O)C=CC(=O)C21C (stereo not given)
inactive: endpoint: mean survival time, dose: 50.0 mg/kg/injection, schedule: Q01DX001 (ip), vehicle: saline 107 % of control | endpoint: mean survival time, dose: 100.0 mg/kg/injection, schedule: Q01DX001 (ip), vehicle: saline 97 % of control

CC1(C(=O)O)CCCC2(C)C3=C(CCCC3)CCC12 (stereo not given)
inactive: [2] 96 % of control | [3] 98 % of control | [4] 93 % of control | [5] 93 % of control | [9] 102 % of control | [6] 90 % of control

NC(=S)Nc1ccccn1
inactive: [10] 100 % of control | [11] 102 % of control | [3] 93 % of control

Cc1sc2ncnc(Cl)c2c1C
inactive: [10] 103 % of control | [11] 114 % of control | [7] 97 % of control | [3] 94 % of control

NC(CSS(=O)(=O)CC(N)C(=O)O)C(=O)O (stereo not given)
inactive: endpoint: mean survival time, dose: 100.0 mg/kg/injection, schedule: Q04DX003 (ip), vehicle: saline 103 % of control | endpoint: mean survival time, dose: 200.0 mg/kg/injection, schedule: Q04DX003 (ip), vehicle: saline 109 % of control | endpoint: mean survival time, dose: 400.0 mg/kg/injection, schedule: Q04DX003 (ip), vehicle: saline 103 % of control

N#Cc1ccccc1NC1OCC(O)C(O)C1O (stereo not given)
inactive: [2] 95 % of control | [4] 101 % of control | [9] 94 % of control

O=C(Nc1nccs1)C(F)(F)F
inactive: endpoint: median survival time, dose: 50.0 mg/kg/injection, schedule: Q01DX009 (ip), vehicle: saline 100 % of control | endpoint: median survival time, dose: 100.0 mg/kg/injection, schedule: Q01DX009 (ip), vehicle: saline 108 % of control | endpoint: median survival time, dose: 200.0 mg/kg/injection, schedule: Q01DX009 (ip), vehicle: saline 108 % of control | endpoint: median survival time, dose: 400.0 mg/kg/injection, schedule: Q01DX009 (ip), vehicle: saline 109 % of control

CCCCN1C(=O)N(c2ccc(OCC)cc2)C2N(CCCC)C1C(C)(C)C2(C)C (stereo not given)
inactive: endpoint: mean survival time, dose: 100.0 mg/kg/injection, schedule: Q04DX002 (ip), vehicle: saline with Tween-80 107 % of control | endpoint: median survival time, dose: 7.5 mg/kg/injection, schedule: Q01DX005 (ip), vehicle: saline with Tween-80 107 % of control | endpoint: median survival time, dose: 15.0 mg/kg/injection, schedule: Q01DX005 (ip), vehicle: saline with Tween-80 110 % of control | endpoint: median survival time, dose: 30.0 mg/kg/injection, schedule: Q01DX005 (ip), vehicle: saline with Tween-80 101 % of control | endpoint: median survival time, dose: 60.0 mg/kg/injection, schedule: Q01DX005 (ip), vehicle: saline with Tween-80 101 % of control | endpoint: median survival time, dose: 120.0 mg/kg/injection, schedule: Q01DX005 (ip), vehicle: saline with Tween-80 113 % of control

CC(=O)/C(N=O)=C(/C)O
inactive: [12] 88 % of control | [8] 92 % of control

COC(=O)CSC(=S)N(C)C
inactive: [3] 98 % of control | [5] 100 % of control | [6] 90 % of control

Cn1c(N)c(C2OC(=O)c3ccccc32)c(=O)n(C)c1=O (stereo not given)
inactive: endpoint: mean survival time, dose: 100.0 mg/kg/injection, schedule: Q04DX002 (ip), vehicle: Klucel (hydroxypropylcellulose) (HPC) 98 % of control | endpoint: mean survival time, dose: 200.0 mg/kg/injection, schedule: Q04DX002 (ip), vehicle: Klucel (hydroxypropylcellulose) (HPC) 98 % of control

COC1C(O)CC(OC2CC(Oc3cc4cc5c(c(O)c4c(O)c3C)C(=O)[C@@H](OC3CC(OC4CC(OC6CC(C)(O)C(OC(C)=O)C(C)O6)C(O)C(C)O4)C(O)C(C)O3)[C@H]([C@H](OC)C(=O)[C@@H](O)[C@@H](C)O)C5)OC(C)C2OC(C)=O)OC1C (stereo not given in full)
inactive: endpoint: mean survival time, dose: 62.5 micrograms/kg/injection, schedule: Q01DX009 (ip), vehicle: saline 120 % of control | endpoint: mean survival time, dose: 250.0 micrograms/kg/injection, schedule: Q01DX009 (ip), vehicle: saline 92 % of control

OC(Cc1ccccn1)C(Cl)(Cl)Cl (stereo not given)
inactive: endpoint: mean survival time, dose: 50.0 mg/kg/injection, schedule: Q04DX002 (ip), vehicle: saline 97 % of control | [2] 102 % of control | endpoint: mean survival time, dose: 100.0 mg/kg/injection, schedule: Q04DX002 (ip), vehicle: saline 114 % of control | [3] 95 % of control | [4] 112 % of control | endpoint: mean survival time, dose: 200.0 mg/kg/injection, schedule: Q04DX002 (ip), vehicle: saline 94 % of control | [5] 111 % of control | [9] 98 % of control | [6] 103 % of control

CC(C)c1ccc(/C=C2/CCCCC2=O)cc1
inactive: endpoint: mean survival time, dose: 25.0 mg/kg/injection, schedule: Q01DX009 (ip), vehicle: saline with Tween-80 93 % of control | [1] 97 % of control | [2] 97 % of control

COC1OC(COS(=O)(=O)c2ccc(C)cc2)C(O)C(O)C1O (stereo not given)
inactive: [7] 100 % of control | [2] 96 % of control | [12] 95 % of control | [4] 91 % of control | [8] 94 % of control | [9] 94 % of control

CCCCCCCCCCCCCCCCCCOCC(CO)OC (stereo not given)
inactive: endpoint: median survival time, dose: 25.0 mg/kg/injection, schedule: Q01DX009 (ip), vehicle: saline with Tween-80 104 % of control | endpoint: median survival time, dose: 50.0 mg/kg/injection, schedule: Q01DX009 (ip), vehicle: saline with Tween-80 101 % of control | endpoint: median survival time, dose: 100.0 mg/kg/injection, schedule: Q01DX009 (ip), vehicle: saline with Tween-80 103 % of control | endpoint: median survival time, dose: 200.0 mg/kg/injection, schedule: Q01DX009 (ip), vehicle: saline with Tween-80 102 % of control

CCCCCCCCCCCCOC(=O)C[n+]1cccc(C(=O)NCc2ccccc2)c1
inactive: endpoint: mean survival time, dose: 6.25 mg/kg/injection, schedule: Q04DX003 (ip), vehicle: saline with Tween-80 108 % of control | endpoint: mean survival time, dose: 12.5 mg/kg/injection, schedule: Q04DX003 (ip), vehicle: saline with Tween-80 104 % of control | [10] 106 % of control

O=C(O)CP(=O)(O)O
inactive: endpoint: mean survival time, dose: 4.0 mg/kg/injection, schedule: Q01DX009 (ip), vehicle: saline 98 % of control | endpoint: mean survival time, dose: 8.0 mg/kg/injection, schedule: Q01DX009 (ip), vehicle: saline 96 % of control | endpoint: mean survival time, dose: 16.0 mg/kg/injection, schedule: Q01DX009 (ip), vehicle: saline 104 % of control | endpoint: mean survival time, dose: 32.0 mg/kg/injection, schedule: Q01DX009 (ip), vehicle: saline 98 % of control | endpoint: mean survival time, dose: 37.5 mg/kg/injection, schedule: Q01DX009 (ip), vehicle: saline 91 % of control | endpoint: mean survival time, dose: 50.0 mg/kg/injection, schedule: Q01DX009 (ip), vehicle: saline 95 % of control and 103 % of control | endpoint: mean survival time, dose: 64.0 mg/kg/injection, schedule: Q01DX009 (ip), vehicle: saline 103 % of control | endpoint: mean survival time, dose: 75.0 mg/kg/injection, schedule: Q01DX009 (ip), vehicle: saline 102 % of control | endpoint: mean survival time, dose: 100.0 mg/kg/injection, schedule: Q01DX009 (ip), vehicle: saline 98 % of control and 102 % of control | endpoint: mean survival time, dose: 128.0 mg/kg/injection, schedule: Q01DX009 (ip), vehicle: saline 86 % of control | endpoint: mean survival time, dose: 150.0 mg/kg/injection, schedule: Q01DX009 (ip), vehicle: saline 100 % of control | endpoint: mean survival time, dose: 200.0 mg/kg/injection, schedule: Q01DX009 (ip), vehicle: saline 97 % of control and 102 % of control | endpoint: mean survival time, dose: 400.0 mg/kg/injection, schedule: Q01DX009 (ip), vehicle: saline 98 % of control and 101 % of control | endpoint: mean survival time, dose: 800.0 mg/kg/injection, schedule: Q01DX009 (ip), vehicle: saline 93 % of control and 103 % of control
